According to ChEMBL document CHEMBL1154277, “Discovery of N-substituted pyridinones as potent and selective inhibitors of p38 kinase” (Bioorg Med Chem Lett, 2009):

What was measured:
[1] = Oral bioavailability in Sprague-Dawley rat; assay type: ADME, organism-based; conditions: in vivo
[2] = biological target: Serine/threonine-protein kinase N1 (Homo sapiens) (UniProt Q16512); experiment: Inhibition of PRK1 at 10 uM
[3] = Metabolic stability in rat liver microsomes assessed as compound remaining at 2 uM after 45 mins by LC/MS analysis; assay type: ADME, Microsome; conditions: read-out: Stability
[4] = biological target: Serine/threonine-protein kinase D1 (Homo sapiens) (UniProt Q15139); experiment: Inhibition of PKCmu at 10 uM
[5] = biological target: Serine/threonine-protein kinase PAK 5 (Homo sapiens) (UniProt Q9P286); experiment: Inhibition of PAK7 at 10 uM
[6] = biological target: Protein kinase C gamma type (Homo sapiens) (UniProt P05129); experiment: Inhibition of PKCgamma at 10 uM
[7] = biological target: Leucine-rich repeat serine/threonine-protein kinase 2 (Homo sapiens) (UniProt Q5S007); experiment: Inhibition of LRRK2 at 10 uM
[8] = tested on: Tyrosine-protein kinase ABL1 (Homo sapiens), P00519 [G250E]; experiment: Inhibition of ABL1 G250E (mutant) at 10 uM
[9] = biological target: Serine/threonine-protein kinase PAK 6 (Homo sapiens) (UniProt Q9NQU5); experiment: Inhibition of PAK6 at 10 uM
[10] = biological target: Activin receptor type-1B (Homo sapiens) (UniProt P36896); experiment: Inhibition of ALK4 at 10 uM
[11] = biological target: cAMP-dependent protein kinase catalytic subunit PRKX (Homo sapiens) (UniProt P51817); experiment: Inhibition of PRKX at 10 uM
[12] = biological target: Fibroblast growth factor receptor 4 (Homo sapiens) (UniProt P22455); experiment: Inhibition of FGFR4 at 10 uM
[13] = biological target: Serine/threonine-protein kinase Nek1 (Homo sapiens) (UniProt Q96PY6); experiment: Inhibition of NEK1 at 10 uM
[14] = biological target: Tyrosine-protein kinase Blk (Homo sapiens) (UniProt P51451); experiment: Inhibition of BLK at 10 uM
PBMC = experiment: Antiinflammatory activity against human PBMC assessed as inhibition of LPS-induced TNFalpha release; assay type: functional, cell-based
[15] = biological target: Serine/threonine-protein kinase Sgk2 (Homo sapiens) (UniProt Q9HBY8); experiment: Inhibition of SGK2 at 10 uM
[16] = biological target: Ribosomal protein S6 kinase alpha-5 (Homo sapiens) (UniProt O75582); experiment: Inhibition of MSK1 at 10 uM
[17] = biological target: Protein kinase C theta type (Homo sapiens) (UniProt Q04759); experiment: Inhibition of PKCtheta at 10 uM
[18] = tested on: Proto-oncogene tyrosine-protein kinase receptor Ret (Homo sapiens), P07949 [Y791F]; experiment: Inhibition of RET Y791F (mutant) at 10 uM
[19] = biological target: Dual specificity tyrosine-phosphorylation-regulated kinase 1A (Homo sapiens) (UniProt Q13627); experiment: Inhibition of DYRK1A at 10 uM
[20] = biological target: Casein kinase I isoform alpha (Homo sapiens) (UniProt P48729); experiment: Inhibition of CSNK1A1 at 10 uM
[21] = biological target: Receptor-type tyrosine-protein kinase FLT3 (Homo sapiens) (UniProt P36888); experiment: Inhibition of FLT3 at 10 uM
[22] = biological target: Casein kinase I isoform delta (Homo sapiens) (UniProt P48730); experiment: Inhibition of CSNK1D at 10 uM
[23] = Inhibition of PKG2 at 10 uM
[24] = biological target: Protein kinase C epsilon type (Homo sapiens) (UniProt Q02156); experiment: Inhibition of PKCepsilon at 10 uM
[25] = biological target: Tyrosine-protein kinase Lyn (Homo sapiens) (UniProt P07948); experiment: Inhibition of LYN A at 10 uM
[26] = tested on: Tyrosine-protein kinase ABL1 (Homo sapiens), P00519 [T315I]; experiment: Inhibition of ABL1 T315I (mutant) at 10 uM
[27] = biological target: Ephrin type-A receptor 2 (Homo sapiens) (UniProt P29317); experiment: Inhibition of EPHA2 at 10 uM
[28] = biological target: Ribosomal protein S6 kinase alpha-1 (Homo sapiens) (UniProt Q15418); experiment: Inhibition of RSK1 at 10 uM
[29] = biological target: RAC-gamma serine/threonine-protein kinase (Homo sapiens) (UniProt Q9Y243); experiment: Inhibition of AKT3 at 10 uM
[30] = biological target: Dual specificity mitogen-activated protein kinase kinase 2 (Homo sapiens) (UniProt P36507); experiment: Inhibition of MEK2 at 10 uM
[31] = biological target: Dual specificity tyrosine-phosphorylation-regulated kinase 1B (Homo sapiens) (UniProt Q9Y463); experiment: Inhibition of DYRK1B at 10 uM
[32] = biological target: Rho-associated protein kinase 1 (Homo sapiens) (UniProt Q13464); experiment: Inhibition of ROCK1 at 10 uM
[33] = biological target: AMP-activated protein kinase, AMPK (Homo sapiens) (UniProt P54646+O43741+P54619+Q9UGJ0+Q9Y478+Q13131+Q9UGI9); experiment: Inhibition of AMPK alpha-2/beta-1/gamma-1 at 10 uM; assay type: protein-complex assay
[34] = biological target: Protein kinase C zeta type (Homo sapiens) (UniProt Q05513); experiment: Inhibition of PKCzeta at 10 uM
[35] = biological target: Serine/threonine-protein kinase pim-2 (Homo sapiens) (UniProt Q9P1W9); experiment: Inhibition of PIM2 at 10 uM
[36] = biological target: Serine/threonine-protein kinase MRCK alpha (Homo sapiens) (UniProt Q5VT25); experiment: Inhibition of MRCKalpha at 10 uM
[37] = biological target: NUAK family SNF1-like kinase 1 (Homo sapiens) (UniProt O60285); experiment: Inhibition of NUAK1 at 10 uM
[38] = biological target: Protein kinase C alpha type (Homo sapiens) (UniProt P17252); experiment: Inhibition of PKCalpha at 10 uM
[39] = biological target: Tyrosine-protein kinase ABL2 (Homo sapiens) (UniProt P42684); experiment: Inhibition of ABL2 at 10 uM
[40] = biological target: Calcium/calmodulin-dependent protein kinase type II subunit alpha (Homo sapiens) (UniProt Q9UQM7); experiment: Inhibition of CAMK2alpha at 10 uM
[41] = biological target: Serine/threonine-protein kinase PAK 4 (Homo sapiens) (UniProt O96013); experiment: Inhibition of PAK4 at 10 uM
[42] = biological target: BDNF/NT-3 growth factors receptor (Homo sapiens) (UniProt Q16620); experiment: Inhibition of TRKB at 10 uM
[43] = biological target: Tyrosine-protein kinase receptor UFO (Homo sapiens) (UniProt P30530); experiment: Inhibition of AXL at 10 uM
[44] = tested on: Epidermal growth factor receptor (Homo sapiens), P00533 [L861Q]; experiment: Inhibition of EGFR L861Q (mutant) at 10 uM; assay type: protein assay
[45] = tested on: Serine/threonine-protein kinase B-raf (Homo sapiens), P15056 [V600E]; experiment: Inhibition of B-Raf V599E (mutant) at 10 uM
[46] = biological target: Serine/threonine-protein kinase pim-1 (Homo sapiens) (UniProt P11309); experiment: Inhibition of PIM1 at 10 uM
Chain of Serine/threonine-protein kinase pim-1 (Homo sapiens) (P11309 whole entry, looked up): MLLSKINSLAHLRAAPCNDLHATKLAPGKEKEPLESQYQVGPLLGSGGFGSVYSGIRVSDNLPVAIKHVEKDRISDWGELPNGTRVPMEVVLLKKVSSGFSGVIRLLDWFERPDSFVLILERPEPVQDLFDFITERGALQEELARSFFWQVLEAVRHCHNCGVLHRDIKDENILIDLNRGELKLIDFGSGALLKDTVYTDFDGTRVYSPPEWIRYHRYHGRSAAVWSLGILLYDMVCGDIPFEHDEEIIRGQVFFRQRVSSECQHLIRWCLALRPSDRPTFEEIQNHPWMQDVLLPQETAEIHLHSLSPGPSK

Chain of RAC-gamma serine/threonine-protein kinase (Homo sapiens) (Q9Y243 whole entry): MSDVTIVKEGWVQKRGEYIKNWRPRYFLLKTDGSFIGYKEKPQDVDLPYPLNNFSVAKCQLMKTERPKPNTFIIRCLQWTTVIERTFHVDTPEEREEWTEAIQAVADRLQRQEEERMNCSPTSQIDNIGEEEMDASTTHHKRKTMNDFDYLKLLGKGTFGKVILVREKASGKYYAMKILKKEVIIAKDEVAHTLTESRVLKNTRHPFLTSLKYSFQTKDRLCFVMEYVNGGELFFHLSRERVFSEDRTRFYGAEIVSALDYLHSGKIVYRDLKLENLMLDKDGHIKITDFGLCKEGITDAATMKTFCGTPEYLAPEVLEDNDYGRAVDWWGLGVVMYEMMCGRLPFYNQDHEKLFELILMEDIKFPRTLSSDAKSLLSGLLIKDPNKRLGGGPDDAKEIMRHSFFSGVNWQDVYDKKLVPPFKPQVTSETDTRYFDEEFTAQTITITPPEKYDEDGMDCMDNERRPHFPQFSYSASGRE
Chain of Ribosomal protein S6 kinase alpha-1 (Homo sapiens) (Q15418 whole entry): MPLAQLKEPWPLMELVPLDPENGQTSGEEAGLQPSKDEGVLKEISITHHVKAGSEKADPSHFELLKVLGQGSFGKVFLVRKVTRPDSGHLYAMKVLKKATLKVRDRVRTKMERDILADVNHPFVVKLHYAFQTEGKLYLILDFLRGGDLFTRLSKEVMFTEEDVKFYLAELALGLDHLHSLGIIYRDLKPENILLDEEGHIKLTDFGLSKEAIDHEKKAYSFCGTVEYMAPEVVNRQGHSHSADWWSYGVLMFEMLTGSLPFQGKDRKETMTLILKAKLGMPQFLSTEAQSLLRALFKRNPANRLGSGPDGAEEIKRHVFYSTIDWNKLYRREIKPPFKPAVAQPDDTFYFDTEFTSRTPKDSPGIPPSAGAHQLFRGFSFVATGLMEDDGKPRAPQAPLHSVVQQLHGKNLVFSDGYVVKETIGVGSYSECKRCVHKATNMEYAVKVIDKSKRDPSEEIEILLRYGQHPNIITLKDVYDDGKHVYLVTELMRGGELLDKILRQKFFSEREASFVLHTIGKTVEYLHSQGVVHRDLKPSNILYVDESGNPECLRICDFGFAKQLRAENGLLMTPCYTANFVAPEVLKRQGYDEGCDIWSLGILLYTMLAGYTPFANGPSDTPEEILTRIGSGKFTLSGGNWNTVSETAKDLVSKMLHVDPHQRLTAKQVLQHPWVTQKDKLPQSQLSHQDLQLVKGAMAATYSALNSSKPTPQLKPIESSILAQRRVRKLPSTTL
Chain of Serine/threonine-protein kinase MRCK alpha (Homo sapiens) (Q5VT25 whole entry): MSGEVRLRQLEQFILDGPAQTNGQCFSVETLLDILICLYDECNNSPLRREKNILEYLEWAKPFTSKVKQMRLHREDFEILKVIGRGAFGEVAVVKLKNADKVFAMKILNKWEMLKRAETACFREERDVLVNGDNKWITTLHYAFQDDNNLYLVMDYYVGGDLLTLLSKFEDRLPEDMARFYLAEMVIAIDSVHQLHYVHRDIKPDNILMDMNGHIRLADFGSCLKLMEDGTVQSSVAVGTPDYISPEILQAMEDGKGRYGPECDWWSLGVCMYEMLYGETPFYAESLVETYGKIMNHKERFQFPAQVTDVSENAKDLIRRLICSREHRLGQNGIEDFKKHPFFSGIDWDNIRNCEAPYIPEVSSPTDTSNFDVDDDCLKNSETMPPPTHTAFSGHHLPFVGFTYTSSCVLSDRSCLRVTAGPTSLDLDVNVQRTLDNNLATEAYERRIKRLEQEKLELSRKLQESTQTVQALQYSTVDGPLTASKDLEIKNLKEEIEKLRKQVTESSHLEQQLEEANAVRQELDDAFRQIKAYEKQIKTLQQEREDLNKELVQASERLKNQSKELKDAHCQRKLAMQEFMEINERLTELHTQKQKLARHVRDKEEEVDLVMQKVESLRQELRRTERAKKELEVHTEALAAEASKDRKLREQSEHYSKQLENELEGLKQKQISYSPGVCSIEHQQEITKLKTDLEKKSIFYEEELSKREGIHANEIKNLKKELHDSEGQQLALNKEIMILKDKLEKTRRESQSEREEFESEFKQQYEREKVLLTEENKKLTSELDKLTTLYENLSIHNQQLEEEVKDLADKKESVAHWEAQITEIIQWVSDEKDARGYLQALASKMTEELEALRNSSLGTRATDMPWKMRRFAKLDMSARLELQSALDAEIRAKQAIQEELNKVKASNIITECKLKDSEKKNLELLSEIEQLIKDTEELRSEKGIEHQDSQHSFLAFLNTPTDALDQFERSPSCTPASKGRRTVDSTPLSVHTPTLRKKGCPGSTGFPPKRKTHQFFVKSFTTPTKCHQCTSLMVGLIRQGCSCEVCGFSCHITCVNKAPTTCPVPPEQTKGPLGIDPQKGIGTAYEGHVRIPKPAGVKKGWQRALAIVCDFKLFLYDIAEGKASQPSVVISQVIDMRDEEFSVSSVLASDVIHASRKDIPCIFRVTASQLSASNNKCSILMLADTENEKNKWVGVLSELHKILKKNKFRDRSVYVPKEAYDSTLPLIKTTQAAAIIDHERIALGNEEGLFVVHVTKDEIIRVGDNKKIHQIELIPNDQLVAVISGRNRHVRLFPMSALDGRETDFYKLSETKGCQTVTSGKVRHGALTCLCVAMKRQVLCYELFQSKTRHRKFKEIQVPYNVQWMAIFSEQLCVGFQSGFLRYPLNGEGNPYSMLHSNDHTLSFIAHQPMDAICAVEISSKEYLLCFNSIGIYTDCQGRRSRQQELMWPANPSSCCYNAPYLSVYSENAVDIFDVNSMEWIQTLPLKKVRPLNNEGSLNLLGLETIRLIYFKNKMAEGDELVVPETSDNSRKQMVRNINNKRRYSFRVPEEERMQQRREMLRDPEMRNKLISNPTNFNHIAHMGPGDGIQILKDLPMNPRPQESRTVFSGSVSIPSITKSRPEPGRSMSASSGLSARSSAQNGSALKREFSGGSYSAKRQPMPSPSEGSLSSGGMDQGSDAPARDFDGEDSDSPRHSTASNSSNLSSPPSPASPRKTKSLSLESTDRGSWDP
Chain of Tyrosine-protein kinase Blk (Homo sapiens) (P51451 2-505 limits assumed): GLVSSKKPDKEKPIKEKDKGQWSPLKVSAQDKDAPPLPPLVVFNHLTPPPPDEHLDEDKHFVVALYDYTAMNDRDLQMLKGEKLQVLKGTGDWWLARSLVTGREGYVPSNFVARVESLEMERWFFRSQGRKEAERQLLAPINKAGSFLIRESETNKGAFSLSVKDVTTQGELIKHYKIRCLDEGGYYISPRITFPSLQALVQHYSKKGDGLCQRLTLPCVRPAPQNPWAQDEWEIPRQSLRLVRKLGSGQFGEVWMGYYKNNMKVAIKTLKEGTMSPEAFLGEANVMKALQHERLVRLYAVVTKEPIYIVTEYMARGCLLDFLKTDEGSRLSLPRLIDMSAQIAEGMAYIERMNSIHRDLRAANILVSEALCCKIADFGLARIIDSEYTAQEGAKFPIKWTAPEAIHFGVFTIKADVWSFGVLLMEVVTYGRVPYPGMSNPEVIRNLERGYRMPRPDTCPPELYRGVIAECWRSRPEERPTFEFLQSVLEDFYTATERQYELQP
Chain of Protein kinase C zeta type (Homo sapiens) (Q05513 whole entry): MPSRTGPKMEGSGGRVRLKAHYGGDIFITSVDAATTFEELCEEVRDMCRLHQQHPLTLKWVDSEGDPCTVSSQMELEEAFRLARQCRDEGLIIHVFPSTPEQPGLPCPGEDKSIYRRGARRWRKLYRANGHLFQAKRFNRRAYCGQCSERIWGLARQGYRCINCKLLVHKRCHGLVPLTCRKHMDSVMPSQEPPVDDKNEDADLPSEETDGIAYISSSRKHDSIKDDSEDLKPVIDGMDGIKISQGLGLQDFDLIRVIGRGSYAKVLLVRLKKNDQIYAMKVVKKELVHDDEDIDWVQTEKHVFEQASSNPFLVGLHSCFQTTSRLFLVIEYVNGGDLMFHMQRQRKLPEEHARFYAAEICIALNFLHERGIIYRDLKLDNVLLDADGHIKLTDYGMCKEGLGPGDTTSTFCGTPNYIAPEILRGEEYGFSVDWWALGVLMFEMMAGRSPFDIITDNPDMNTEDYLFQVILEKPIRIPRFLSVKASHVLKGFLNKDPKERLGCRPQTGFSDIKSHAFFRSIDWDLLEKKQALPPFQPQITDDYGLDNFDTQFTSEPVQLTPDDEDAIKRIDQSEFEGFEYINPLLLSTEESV
Chain of Dual specificity mitogen-activated protein kinase kinase 2 (Homo sapiens) (P36507 whole entry): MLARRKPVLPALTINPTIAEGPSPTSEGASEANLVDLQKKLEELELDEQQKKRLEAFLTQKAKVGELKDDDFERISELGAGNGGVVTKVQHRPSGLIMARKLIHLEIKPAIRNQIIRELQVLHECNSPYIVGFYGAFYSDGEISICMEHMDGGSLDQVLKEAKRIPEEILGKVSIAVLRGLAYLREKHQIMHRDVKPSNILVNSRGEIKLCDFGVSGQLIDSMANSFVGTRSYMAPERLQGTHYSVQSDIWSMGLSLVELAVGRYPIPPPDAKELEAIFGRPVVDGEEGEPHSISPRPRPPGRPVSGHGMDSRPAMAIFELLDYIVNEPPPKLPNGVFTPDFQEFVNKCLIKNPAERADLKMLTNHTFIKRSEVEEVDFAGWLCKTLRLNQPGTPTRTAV

Cc1cc(OCc2ccc(F)cc2F)c(Br)c(=O)n1Cc1ccc(CN(C)C)cc1
bioavailability [1]: 91% | inhibition [2]: < 50% | remaining at 0.75 h, 2 µM [3]: 53% | inhibition [4]: < 50% | inhibition [5]: < 50% | inhibition [6]: < 50% | inhibition [7]: < 50% | inhibition [8]: < 50% | inhibition [9]: < 50% | inhibition [10]: < 50% | inhibition [11]: < 50% | inhibition [12]: < 50% | inhibition [13]: < 50% | inhibition [14]: < 50% | IC50 (PBMC): 44 nM | inhibition [15]: < 50% | inhibition [16]: < 50% | inhibition [17]: < 50% | inhibition [18]: < 50% | inhibition [19]: < 50% | inhibition [20]: < 50% | inhibition [21]: < 50% | inhibition [22]: < 50% | inhibition [23]: < 50% | inhibition [24]: < 50% | inhibition [25]: < 50% | inhibition [26]: < 50% | inhibition [27]: < 50% | inhibition [28]: < 50% | inhibition [29]: < 50% | inhibition [30]: < 50% | inhibition [31]: < 50% | inhibition [32]: < 50% | inhibition [33]: < 50% | inhibition [34]: < 50% | inhibition [35]: < 50% | inhibition [36]: < 50% | inhibition [37]: < 50% | inhibition [38]: < 50% | inhibition [39]: < 50% | inhibition [40]: < 50% | inhibition [41]: < 50% | inhibition [42]: < 50% | inhibition [43]: < 50% | inhibition [44]: < 50% | inhibition [45]: < 50% | inhibition [46]: < 50%
